Assay results taken from patent US11116776B2, “Intravitreal drug delivery systems for the treatment of ocular conditions” (Aerie Pharmaceuticals, Inc., priority 2015, dated 2021).

Columns and labels:
[1] = monkey (Chang-Lin 2011); cited from earlier work
[2] = ENVRES-PRE-002 ocular pharmacokinetics after intravitreal injection; format: in vivo, New Zealand White rabbits; settings: rabbit; for Cmax: male, New Zealand White, topical or ocular
Experimental: New Zealand White rabbits, 2 males/group/terminal time point, were administered a single bilateral intravitreal injection of either ENV1105 or OZURDEX and were followed for up 1, 2, 3, and/or 5 months. Animals were examined via slit lamp ophthalmoscopy and indirect ophthalmoscopy.
Ocular tissues, including aqueous humor, vitreous humor, and retina, were processed and analyzed for dexamethasone or FA by two of three methods. Dexamethasone present in ocular tissue samples was quantified by ELISA and HPLC. FA present in ocular tissues was quantified by HPLC and mass spectrometry. Prior to analysis, implants or particles were separated from vitreous humor samples via manual removal or centrifugation. Vitreous humor and aqueous humor tissue samples were analyzed as received or diluted with ACN for LC MS/MS or PBS for ELISA.
Animals were followed for up to 3 months, with ocular matrices (retina/choroid, vitreous humor and aqueous humor) collected to determine ocular pharmacokinetics at Months 2 and 3. Ocular exams were conducted on Days 2, 3, 6, 10, weekly through Day 28, and then biweekly through Month 3 to determine tolerability. A summary of the study designed is provided below in Table 10.

[3] = test system: VEGF-induced vascular leakage; settings: rabbit model (Edelman 2005); cited from earlier work

C[C@@H]1C[C@H]2[C@@H]3CCC4=CC(=O)C=C[C@]4(C)[C@@]3(F)[C@@H](O)C[C@]2(C)[C@@]1(O)C(=O)CO [Dexamethasone, (8S,9R,10S,11S,13S,14S,16R,17R)-9-Fluoro-11,17-dihydroxy-17-(2-hydroxyacetyl)-10,13,16-trimethyl-6,7,8,9,10,11,12,13,14,15,16,17-dodecahydro-3H-cyclopenta[a]phenanthren-3-one]
time dexamethasone was detected in the retina and vitreous humor [1]: 6 months | Cmax ([2]; 0.27 mg, aqueous humor, Group 4 (ENV-1R-0119-7-5, 6 implants, 270 μg/eye)): 5.9 ng/mL | Cmax ([2]; 0.27 mg, retina/choroid, Group 4 (ENV-1R-0119-7-5, 6 implants, 270 μg/eye)): 28100 ng/g | Cmax ([2]; 0.27 mg, vitreous humor, Group 4 (ENV-1R-0119-7-5, 6 implants, 270 μg/eye)): 3080 ng/mL | efficacy in VEGF-induced vascular leakage [3]: effective

CC1(C)O[C@@H]2C[C@H]3[C@@H]4C[C@H](F)C5=CC(=O)C=C[C@]5(C)[C@@]4(F)[C@@H](O)C[C@]3(C)[C@]2(C(=O)CO)O1 [fluocinolone acetonide, (1S,2S,4R,8S,9S,11S,12R,13S,19S)-12,19-difluoro-11-hydroxy-8-(2-hydroxyacetyl)-6,6,9,13-tetramethyl-5,7-dioxapentacyclo[10.8.0.0^2,9.0^4.8.0 ^13,18]icosa-14,17-dien-16-one]
day on which concentration peaked ([2]; Group 5 (ENV-1R-0119-33-7), retina/choroid and vitreous humor): 84 days | Cmax ([2]; 0.0407 mg, retina/choroid, Group 5 (ENV-1R-0119-33-7, 40.7 μg/eye)): 3950 ng/g | Cmax ([2]; 0.0407 mg, vitreous humor, Group 5 (ENV-1R-0119-33-7, 40.7 μg/eye)): 298 ng/g
